Assay [1] has as its target T1, human FAAH (Fatty Acid Amide Hydrolase) (Homo sapiens, UniProt O00519).
T1 construct: The full length FAAH was subcloned into the mammalian expression vector, pcDEF.neo, using XbaI and EcoRI restriction sites; expressed in transfected cells
T1 sequence (O00519 1-579): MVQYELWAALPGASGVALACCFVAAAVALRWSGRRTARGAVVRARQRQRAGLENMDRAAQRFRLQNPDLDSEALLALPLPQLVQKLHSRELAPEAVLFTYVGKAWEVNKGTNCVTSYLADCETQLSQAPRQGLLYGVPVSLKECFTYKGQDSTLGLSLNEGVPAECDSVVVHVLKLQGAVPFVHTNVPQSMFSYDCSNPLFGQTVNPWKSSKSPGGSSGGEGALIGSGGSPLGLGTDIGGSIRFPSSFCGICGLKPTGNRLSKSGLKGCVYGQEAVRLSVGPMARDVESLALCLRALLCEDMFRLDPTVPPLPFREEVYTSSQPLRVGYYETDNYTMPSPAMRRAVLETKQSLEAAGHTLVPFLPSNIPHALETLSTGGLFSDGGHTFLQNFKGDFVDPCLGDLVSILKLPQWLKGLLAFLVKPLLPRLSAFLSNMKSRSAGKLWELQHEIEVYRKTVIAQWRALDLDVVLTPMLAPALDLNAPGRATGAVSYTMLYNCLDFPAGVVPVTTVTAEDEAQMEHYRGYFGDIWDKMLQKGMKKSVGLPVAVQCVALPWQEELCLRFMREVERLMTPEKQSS
The experiment in a line: FAAH enzyme assay on CHO cell lysate expressing human FAAH (human LY), AAMCA fluorescent substrate. To be noted: human FAAH_CHO cell lysate. It counts as biochemical. An excerpt:
(§1) To assist in assay development stable cell lines for human, murine and rat full length FAAH were developed. Human FAAH cDNA (Accession No: NM_001441.1) was purchased from Origene (Rockville, Md.). The full length FAAH was subcloned into the mammalian expression vector, pcDEF.neo, using XbaI and EcoRI restriction sites and used for stable cell line generation.
CHO cells expressing FAAH were used to prepare either crude cell lysate or microsome fractions. To harvest cells, tissue culture media was decanted, the monolayer washed three times with Ca^++Mg^++ free PBS and cells recovered after […] in enzyme free dissociation media (Millipore Corp, Billerica, Mass.). Cells were collected by centrifuging at 2000 rpm for 15 min. and the cell pellet re-suspended with 50 mM HEPES (pH 7.4) containing 1 mM EDTA and the protease inhibitors aprotinin (1 mg/ml) and leupeptin (100 μM). The suspension was sonicated at 4° C. and the cell lysate recovered after centrifuging at 12,000×g (14,600 rpm, SS34 rotor) for 20 min at 4° C. to form a crude pellet of cell debris, nuclei, peroxisomes, lysosomes, and mitochondria; the supernatant or cell lysate was used for FAAH enzyme assay. In some cases, microsomes fractions enriched in FAAH were prepared by centrifuging the cell lysate further at 27,000 rpm (100,000×g) in SW28 rotor for 50 minutes at 4° C. The pellet containing FAAH-enriched microsomes was re-suspend in 50 mM HEPES, (pH 7.4) 1 mM EDTA, and any remaining DNA sheared by passage of material through a 23 gauge needle and aliquots of enzyme were store at −80° C. prior to use.
(§2) (American Radiolabeled Chemicals; 1 mCi/ml) with FAAH (Life Sciences (1995), 56, 1999-2005 and Journal of Pharmacology and Experimented Therapeutics (1997), 283, 729-734), Analytical. Biochemistry (2003), 318, 270-5. In addition, routine assays were performed monitoring hydrolysis of arachidonyl-7-amino-4-methylcoumarin amide (AAMCA) by following increase in fluorescence upon release of 7-amino 4-methyl coumarin (λEX=355 nm, μEM=460 nm). Analytical. Biochemistry (2005). 343, 143-51
(§3) Assays are performed on either cell lysate or microsome fractions prepared as described or in whole cell format employing either the fluorescent substrate AAMCA (Cayman chemical, Ann Arbor, Mich.,) or ^3H-anandamide ([ETHANOLAMINE-1-3H] American Radiolabeled Chemicals; 1 mCi/ml). The cell lysate or microsome assay is performed in black PerkinElmer OptiPlates-384F by adding FAAH_CHO (whole cell (human whole cell or human WC), cell lysate (human cell lysate or human LY) or microsome) in assay buffer (50 mM Phosphate, pH 8.0, 1 mM EDTA, 200 mM KCl, 0.2% glycerol, 0.1% fatty acid free BSA) to each well, followed by either DMSO or compound and allowed to incubate at 22-25° C. for fifteen minutes. AAMCA substrate was used to achieve a final concentration of 1 μM and reaction allowed to proceed at room temperature for 1-3 hours. Fluorescent release as a measure of FAAH activity was monitored by reading the plate in a Envision plate Reader (Ex: 360/40 nM; Em: 460/40 nM). Whole cell assay is conducted with cells harvested after rinsing tissue culture flasks three times with Ca^++Mg^++ free PBS, incubating for […] in Enzyme free dissociation media and centrifuging for 5 minutes at 1,000 rpm in table top centrifuge. Cells are resuspended in assay buffer at desired cell number in (4×10^4 cells/assay in 96-well format; 1×10^4 cells/assay in 384-well format) and assayed as described.

Assay [2] addresses T1, human FAAH (Fatty Acid Amide Hydrolase). In words: FAAH whole cell assay on CHO cells expressing human FAAH (human WC), AAMCA fluorescent substrate. It counts as cell-based. The settings on record: human FAAH_CHO whole cell.
Text: as §1
Murine (accession number NM_010173) and Rat FAAH (accession number NM_024132) was amplified by reverse transcriptase polymerase chain reaction (RT-PCR) from brain cDNA (BD Biosciences, San Jose, Calif.) using primers 1 and 2 or primers 1 and 3 respectively (see Table). The resulting PCR product was ligated into pCR4 TOPO and DNA sequence confirmed. The full length murine FAAH was subcloned into the mammalian expression vector, pcDEFneo using either EcoRI (murine) or KpnI and EcoRI (rat) restriction sites. Chinese hamster ovary cells (CHO) were transfected following manufacturers protocol (AMAXA). Forty eight hours post transfection, cells were trypsinized and transferred to 96 well plates in Iscove's DMEM media supplemented with 2 mM Glutamine, 10% fetal calf serum, 1 mg/ml geneticin and HT Supplement (0.1 mM sodium hypoxanthine, 0.016 mM thymidine) in order to isolate single clones. Following selection in geneticin, individual clones were selected and FAAH activity was assessed using a whole cell fluorescent anandamide assay, modified from Ramarao et al (2005). Following removal of tissue culture media cells were dislodged following addition of Cellstripper (Mediatech, Inc. Manassas, Va.) and transferred to 96 well black clear bottom assay plate, centrifuged at 1,000 rpm for 3 mins and media removed and replaced with assay buffer (50 mM Tris pH8.0, 1 mM EDTA, 0.1% fatty acid free BSA). The reaction was initiated by addition of fluorescent substrate, AMC Arachidonoyl Amide (Cayman Chemical, Ann Arbor, Mich.) to 1 μM and reaction allowed to proceed for 2 hours at room temperature. Release of fluorescence was monitored in a CytoFluor Multiplate Reader. Cells expressing the highest amount of FAAH activity were selected for study with FAAH inhibitors.
as §2
as §3, with “Cells are resuspended in assay buffer at desired cell number in (4×10^4 cells/assay in 96-well format; 1×10^4 cells/assay in 384-well format) and assayed as described.” left out

The structures appear in SMILES notation. Several values for one entry are separate records, joined by “and”; a condition that tells them apart may be missing. Identical values can stand only once.

For orientation: IC50 means the point on the concentration scale where inhibition reaches its midpoint. A high value points to weaker potency in that assay.

Turning to `NS(=O)(=O)c1ccc(-c2[nH]c3ncccc3c2Sc2ccc(Cl)cc2)cc1` [Example A7, 4-{3-[(4-chlorophenyl)sulfanyl]-1H-pyrrolo[2,3-b]pyridin-2-yl}benzenesulfonamide], the figures for the concentration for half-maximal inhibition (IC50) in assay [1] and in assay [2] were 4.39 nM and 21.9 nM, respectively.
The corresponding values for `NS(=O)(=O)c1ccc(-c2[nH]c3ncccc3c2Sc2ccc(Cl)cn2)cc1` [Example A8, 4-{3-[(5-chloropyridin-2-yl)sulfanyl]-1H-pyrrolo[2,3-b]pyridin-2-yl}benzenesulfonamide] are 6 nM and 21.8 nM.
The corresponding values for `CSc1ccc(-c2[nH]c3ncccc3c2Sc2ccc(Cl)cc2)cc1` [Example A10] are 0.872 nM and 7.67 nM.
As to `CN(C)S(=O)(=O)c1ccc(-c2[nH]c3ncccc3c2Sc2ccc(Cl)cc2)cc1` [Example A11], the IC50 in assay [1] is 6.38 nM; in assay [2] it was 84.1 nM.
The corresponding values for `OC(c1ccc(-c2[nH]c3ncccc3c2Sc2ccc(Cl)cc2)cc1)C(F)(F)F` (stereo not shown) [Example A12] are 5.29 nM and 27 nM.
The corresponding values for `CC(C)(O)c1ccc(-c2[nH]c3ncccc3c2Sc2ccc(Cl)cn2)cc1` [Example A13] are 17.8 nM and 73.2 nM.
The corresponding values for `CSc1ccc(-c2[nH]c3ncccc3c2Sc2ccc(Cl)cn2)cc1` [Example A14] are 2.98 nM and 35.6 nM.
Take `C[S+]([O-])c1ccc(-c2[nH]c3ncccc3c2Sc2ccc(Cl)cn2)cn1` (stereo not shown) [Example A15]: the values for the IC50 in assay [1] and in assay [2] were 44.1 nM and 34.4 nM, respectively.
On to `CSc1ccc(-c2[nH]c3ncccc3c2Sc2ccc(Cl)cc2)cn1` [Example A16], for which the 50% inhibitory concentration (IC50) in assay [1] came to 3.08 nM; in assay [2], 24 nM.
The corresponding values for `CC(C)Oc1ccc(-c2[nH]c3ncccc3c2Sc2ccc(Cl)cc2)cc1` [Example A17] are 11.6 nM and 154 nM.
The corresponding values for `COCc1ccccc1-c1[nH]c2ncccc2c1Sc1ccc(Cl)cc1` [Example A19] are 196 nM and 1740 nM.
The corresponding values for `CC(=O)Nc1ccc(-c2[nH]c3ncccc3c2Sc2ccc(Cl)cc2)cc1` [Example A20] are 110 nM and 370 nM.
For the compound `O=S(=O)(c1ccc(-c2[nH]c3ncccc3c2Sc2ccc(Cl)cn2)cc1)N1CCOCC1` [Example A21], the IC50 was found to be 230 nM in assay [1] and 370 nM in assay [2].
In the case of `CC(C)(C)NS(=O)(=O)c1ccc(-c2[nH]c3ncccc3c2Sc2ccc(Cl)cc2)cc1` [Example A22], the IC50 was 117 nM in assay [1] and 370 nM in assay [2].
`Oc1ccc(-c2[nH]c3ncccc3c2Sc2ccc(Cl)cc2)cc1` [Example A23]: the 50% inhibitory concentration (IC50) in assay [1] worked out at 1.65 nM; in assay [2] it was 16.4 nM.
The corresponding values for `COc1ccc(-c2[nH]c3ncccc3c2Sc2ccc(Cl)cn2)cn1` [Example A24] are 30.4 nM and 128 nM.
For `OC(c1ccc(-c2[nH]c3ncccc3c2Sc2ccc(Cl)cn2)cc1)C(F)(F)F` (stereo not shown) [Example A25], the results for the IC50 in assay [1] and in assay [2] were 37.6 nM and 147 nM, respectively.
Turning to `COC(=O)c1ccc(-c2[nH]c3ncccc3c2Sc2ccc(Cl)cc2)cc1` [Example A26], the IC50 in assay [1] worked out at 2.84 nM; in assay [2], 18.3 nM.
The corresponding values for `Nc1ccc(-c2[nH]c3ncccc3c2Sc2ccc(Cl)cc2)cc1` [Example A27] are 5.56 nM and 124 nM.
Regarding `OC1CC=C(c2[nH]c3ncccc3c2Sc2ccc(Cl)cn2)CC1` (stereo not shown) [Example A28], the IC50 in assay [1] was 11.8 nM and 20.5 nM; in assay [2] it was 31.6 nM and 60.4 nM.
Regarding `OCc1ccc(-c2[nH]c3ncccc3c2Sc2ccc(Cl)cc2)cc1` [Example A29], the IC50 in assay [1] came to 16.9 nM; in assay [2], 132 nM.
For the compound `NCc1ccc(-c2[nH]c3ncccc3c2Sc2ccc(Cl)cc2)cc1` [Example A30], the IC50 worked out at 56.3 nM in assay [1] and 833 nM in assay [2].
The corresponding values for `CC(C)(O)c1ccc(-c2[nH]c3ncccc3c2Sc2ccc(Cl)cc2)cc1` [Example A31] are 13.2 nM and 42 nM.
The corresponding values for `O=C1NCc2cc(-c3[nH]c4ncccc4c3Sc3ccc(Cl)cc3)ccc21` [Example A32] are 7.84 nM and 15.1 nM.
The corresponding values for `O=C1Cc2cc(-c3[nH]c4ncccc4c3Sc3ccc(Cl)cn3)ccc2N1` [Example A33] are 134 nM and 405 nM.
For `O=C1NCc2cc(-c3[nH]c4ncccc4c3Sc3ccc(Cl)cn3)ccc21` [Example A34], the IC50 was 12.3 nM in assay [1] and 17.1 nM in assay [2].

(Values after patent US20130059850A1, “AZA-INDOLE DERIVATIVES USEFUL AS MODULATORS OF FAAH” (MERCK SHARP & DOHME CORP., priority 2010, published 2013).)
